Laboratory results reported in ChEMBL document CHEMBL3044968, “N-palmitoylethanolamide derivatives: synthesis and studies on anticonvulsant and antidepressant activities” (Med Chem Res, 2011).
Activity calls are given as the source filed them. The calls are words filed in the database; no cut-off is given here.

Columns and labels:
Mus musculus [1] = test: Antidepressant activity in Mus musculus Kunming (mouse) assessed as reduction in duration of immobility at 10 mg/kg, ip measured after 30 min by forced swim test; type: functional; details: 0.5 h, route intraperitoneal
Mus musculus [2] = test: Neurotoxicity in Mus musculus Kunming (mouse) at 100 mg/kg, ip measured after 4 hr by rotarod test; type: toxicity, organism-based; parameters: dose 100 mg/kg, route intraperitoneal; details: in vivo
Mus musculus [3] = test: Neurotoxicity in Mus musculus Kunming (mouse) at 300 mg/kg, ip measured after 4 hr by rotarod test; type: toxicity, organism-based; parameters: dose 300 mg/kg, route intraperitoneal; details: in vivo
Mus musculus [4] = test: Neurotoxicity in Mus musculus Kunming (mouse) at 30 mg/kg, ip measured after 4 hr by rotarod test; type: toxicity, organism-based; parameters: dose 30 mg/kg, route intraperitoneal; details: in vivo
Mus musculus [5] = test: Neurotoxicity in Mus musculus Kunming (mouse) at 100 mg/kg, ip measured after 30 min by rotarod test; type: toxicity, organism-based; parameters: dose 100 mg/kg, route intraperitoneal; details: in vivo, 0.5 h
Mus musculus [6] = test: Neurotoxicity in Mus musculus Kunming (mouse) at 300 mg/kg, ip measured after 30 min by rotarod test; type: toxicity, organism-based; parameters: dose 300 mg/kg, route intraperitoneal; details: in vivo, 0.5 h
Mus musculus [7] = test: Neurotoxicity in Mus musculus Kunming (mouse) at 30 mg/kg, ip measured after 30 min by rotarod test; type: toxicity, organism-based; parameters: dose 30 mg/kg, route intraperitoneal; details: in vivo, 0.5 h
Mus musculus [8] = test: Anticonvulsant activity in Mus musculus Kunming (mouse) assessed as protection against maximal electroshock-induced seizure at 300 mg/kg, ip measured after 4 hr; type: functional, organism-based; parameters: dose 300 mg/kg
Mus musculus [9] = test: Anticonvulsant activity in Mus musculus Kunming (mouse) assessed as protection against maximal electroshock-induced seizure at 100 mg/kg, ip measured after 4 hr; type: functional, organism-based; parameters: dose 100 mg/kg
Mus musculus [10] = test: Anticonvulsant activity in Mus musculus Kunming (mouse) assessed as protection against maximal electroshock-induced seizure at 30 mg/kg, ip measured after 4 hr; type: functional, organism-based; parameters: dose 30 mg/kg
Mus musculus [11] = test: Anticonvulsant activity in Mus musculus Kunming (mouse) assessed as protection against maximal electroshock-induced seizure at 100 mg/kg, ip measured after 30 min; type: functional, organism-based; parameters: dose 100 mg/kg
Mus musculus [12] = test: Anticonvulsant activity in Mus musculus Kunming (mouse) assessed as protection against maximal electroshock-induced seizure at 300 mg/kg, ip measured after 30 min; type: functional, organism-based; parameters: dose 300 mg/kg
Mus musculus [13] = test: Anticonvulsant activity in Mus musculus Kunming (mouse) assessed as protection against maximal electroshock-induced seizure at 30 mg/kg, ip measured after 30 min; type: functional, organism-based; parameters: dose 30 mg/kg

| Compound | inhibition in vivo at 10 mg/kg (Mus musculus [1]) | Activity (Mus musculus [2]) | Activity (Mus musculus [3]) | Activity (Mus musculus [4]) | Activity (Mus musculus [5]) | Activity (Mus musculus [6]) | Activity (Mus musculus [7]) | Activity (Mus musculus [8]) | Activity (Mus musculus [9]) | Activity (Mus musculus [10]) | Activity (Mus musculus [11]) | Activity (Mus musculus [12]) | Activity (Mus musculus [13]) |
| --- | --- | --- | --- | --- | --- | --- | --- | --- | --- | --- | --- | --- | --- |
| CCCCCCCCCCCCCCCC(=O)N(CCO)CCO | 26.3% | Non-toxic | Non-toxic | Non-toxic | Non-toxic | Non-toxic | Non-toxic | inactive | inactive | inactive | inactive | inactive | inactive |
| CCCCCCCCCCCCCCCCCC(=O)NCCO [N-(2-HYDROXYETHYL)STEARAMIDE] | 5.65% | Non-toxic | Non-toxic | Non-toxic | Non-toxic | Non-toxic | Non-toxic | inactive | inactive | inactive | Active | Active | Active |
| CCCCCCCCCCCCCCCC(=O)N(CC)CC [HEXADECANOIC ACID DIETHYLAMIDE] | 17.3% | Non-toxic | Non-toxic | Non-toxic | Non-toxic | Non-toxic | Non-toxic | inactive | inactive | inactive | inactive | inactive | inactive |
| CCN(CC)C(=O)/C=C/c1ccccc1 [N,N-DIETHYLCINNAMAMIDE] | 18.2% | Non-toxic | Non-toxic | Non-toxic | Non-toxic | Toxic | Non-toxic |  |  | inactive |  | Active | inactive |
| O=C(/C=C/c1ccccc1)NCCO [IDROCILAMIDE] | 25.9% | Non-toxic | Non-toxic | Non-toxic | Non-toxic | Toxic | Non-toxic | inactive | inactive | inactive | Active | Active | Active |
| CNCCC(Oc1ccc(C(F)(F)F)cc1)c1ccccc1 (stereo not given) [FLUOXETINE] | 39.4% |  |  |  |  |  |  |  |  |  |  |  |  |
| CCCCCCCCCCCCCCCC(=O)NCCCO [N-(3-HYDROXYPROPYL)PALMITAMIDE] | 22.2% | Non-toxic | Non-toxic | Non-toxic | Non-toxic | Non-toxic | Non-toxic | inactive | inactive | inactive | inactive | inactive | inactive |
| CCCCCCCCCCCCCCCCCC(=O)N(C)CCO | 22% | Non-toxic | Non-toxic | Non-toxic | Non-toxic | Non-toxic | Non-toxic | inactive | inactive | inactive | inactive | inactive | inactive |
| O=C(/C=C/c1ccccc1)NCCCO | 23.4% | Non-toxic | Non-toxic | Non-toxic | Non-toxic | Toxic | Non-toxic | inactive | inactive | inactive | inactive |  | inactive |
| CCCCCCCCCCCCCCCCCC(=O)N(CC)CC [N,N-DIETHYLSTEARAMIDE] | 18.4% | Non-toxic | Non-toxic | Non-toxic | Non-toxic | Non-toxic | Non-toxic | inactive | inactive | inactive | inactive | inactive | inactive |
| CCCCCCCCCCCCCCCC(=O)NCCO [PALMIDROL] | 6.25% | Non-toxic | Non-toxic | Non-toxic | Non-toxic | Non-toxic | Non-toxic | inactive | inactive | inactive | Active | Active |  |
| CCCCCCCCCCCCCCCCCC(=O)NCCCO | 14.1% | Non-toxic | Non-toxic | Non-toxic | Non-toxic | Non-toxic | Non-toxic | inactive | inactive | inactive | inactive | inactive | inactive |
| CN(CCO)C(=O)/C=C/c1ccccc1 | 8.41% | Non-toxic | Non-toxic | Non-toxic | Non-toxic | Toxic | Non-toxic |  | inactive | inactive |  | Active | inactive |
| CN(C)C(=O)/C=C/c1ccccc1 [N,N-DIMETHYLCINNAMAMIDE] | 20% | Non-toxic | Non-toxic | Non-toxic | Non-toxic | Toxic | Non-toxic |  |  | inactive |  | Active | inactive |
